Tests used:
[1] = tested on: artificial bacterial consortium; assay: Dose protocol, bacterial growth inhibition (O.D. 650 nm) in synthetic white water, concurrent fed strategy; assay type: cell-based; settings: for ppm BIT / ppm BNPD / ppm DBDCB / ppm DBNPA / ppm DCOI / ppm DGH / ppm DIDAC / ppm Dithiol / ppm Glut / ppm MBT: alone or with AmBr; for ppm Sulfone: concentration of Sulfone at 50% inhibition
Description: A measured amount of ammonium bromide activated with sodium hypochlorite and a measured amount of a non-oxidizing biocide were added to a suspension of bacteria. The effectiveness of the combination of the biocides is determined by measuring growth or lack thereof after an appropriate incubation time.
(§1) The efficacy of the active materials and blends was determined using a dose protocol. The actives were evaluated in synthetic white water with pH values of 5.5 and 8.0. The materials were tested against an artificial bacterial consortium containing approximately equal numbers of six bacterial strains. Although the test strains are representative of organisms present in paper mill systems, the effect is not limited to these bacteria. Two of the strains were Klebsiella pneumonia (ATCC 13883) and Pseudomonas aeruginosa (ATCC 15442). The other four strains were isolated from papermill systems and have been identified as Curtobacterium flaccumfaciens, Burkholderia cepacia, Bacillus maroccanus, and Pseudomonas glathei. Each strain was inoculated at 37° C. overnight, then suspended in sterile saline. Equal volumes of each strain were then combined to prepare the consortium. The bacterial consortium was distributed into the wells of a microtiter plate in the presence and absence of various concentrations of the active materials. The microtiter plates were incubated at 37° C. Optical density (O.D.) readings at 650 nm were taken initially (t0) and after time 4 hours (t4) of incubation.
(§2) The raw data was converted to “bacterial growth inhibition precentages” according to the following formula: % Inhibition=[(a−b)÷a]*100 where: • a=(O.D. of control at tn)−(O.D. of control at t0) • b=(O.D. of treatment at tn)−(O.D. of treatment at t0)
(§3) The inhibition values can be plotted versus dosage for each active and the particular blend. […] In the examples (tables) below, the I50 values are expressed as parts per million (ppm) of active material.
(§4) The synergism index (SI) was calculate by the equations described by F. C. Kull, P. C. Eisman, H. D. Sylwestrowicz, and R. L. Mayer (1961), Applied Microbiology 9, 538–541. The values are based on the amount needed to achieve a specified end point. The end point selected for these studies was 50% inhibition of bacterial growth. Synergy Index (SI)=(QA÷Qa)+(QB÷Qb) where: • QA=quantity of compound A in mixture, producing the end point • Qa=quantity of compound A, acting alone, producing the end point • QB=quantitiy of compound B in mixture, producing the end point • Qb=quantity of compound B, acting alone, producing the end point
(§5) If SI is less than 1, synergism exists; if SI is greater than 1, antagonism exists; if SI is equal to 1, an additive effect exists.

[2] = tested on: artificial bacterial consortium; assay: Dose protocol, bacterial growth inhibition (O.D. 650 nm) in synthetic white water, sequential fed strategy, one hour delay between the additions; assay type: cell-based; settings: for ppm DBNPA: alone or with AmBr; for ppm MBT: concentration of MBT at 50% inhibition; for ppm Sulfone: concentration of Sulfone at 50% inhibition
Description: A measured amount of ammonium bromide activated with sodium hypochlorite was added to a suspension of bacteria and the cell suspension incubated for a selected time after which a measured amount of a selected non-oxidizing biocide was then added to the suspension. The effectiveness of the combination of biocides was determined by measuring growth or lack thereof after an additional appropriate incubation time.
A measured amount of a selected non-oxidizing biocide was added to a suspension of bacteria and the cell suspension was incubated for a selected time after which a measured amount of ammonium bromide activated with sodium hypochlorite was then added to the suspension. The effectiveness of the combination of biocides was determined by measuring growth or lack thereof after an additional appropriate incubation time.
as §1, §2, §3, §4, §5

[3] = pH 5.5, amount giving 50% inhibition
[4] = pH 8.0, amount giving 50% inhibition
[5] = DBNPA & AmBr, pH 5.5, end point 50% inhibition
[6] = DBNPA & AmBr, pH 8.0, end point 50% inhibition
[7] = pH 5.5, alone or with AmBr at the stated ratio
[8] = pH 8.0, alone or with AmBr at the stated ratio
[9] = Sulfone & AmBr, at 50% inhibition, pH 5.5
[10] = Sulfone & AmBr, at 50% inhibition, pH 8.0

O=c1[nH]sc2ccccc12 [BIT, 1,2-Benzisothiazolin-3-one]
Synergy Index ([1]; BIT & AmBr, pH 5.5, end point 50% inhibition): 1.00 | Synergy Index ([1]; BIT & AmBr, pH 8.0, end point 50% inhibition): 1.00 | ppm BIT [1, 3]: 1.62 ppm | ppm BIT [1, 4]: 3.59 ppm

O=[N+]([O-])C(Br)(CO)CO [BNPD, 2-Bromo-2-nitropropane-1,3-diol]
Synergy Index ([1]; BNPD & AmBr, pH 5.5, end point 50% inhibition): 1.00 | Synergy Index ([1]; BNPD & AmBr, pH 8.0, end point 50% inhibition): 1.00 | ppm BNPD [1, 3]: 1.16 ppm | ppm BNPD [1, 4]: 1.34 ppm

N#CCCC(Br)(C#N)CBr (centres unmarked) [DBDCB, 1,2-Dibromo-2,4-dicyanobutane]
Synergy Index ([1]; DBDCB & AmBr, pH 5.5, end point 50% inhibition): 1.00 | Synergy Index ([1]; DBDCB & AmBr, pH 8.0, end point 50% inhibition): 1.00 | ppm DBDCB [1, 3]: 2.70 ppm | ppm DBDCB [1, 4]: 1.85 ppm

N#CC(Br)(Br)C(N)=O [DBNPA, 2,2-Dibromo-3-nitrilopropionamide]
Synergy Index [1, 5]: 1.00 | Synergy Index [1, 6]: 1.00 | ppm DBNPA [1, 3]: 3.08 ppm | ppm DBNPA [1, 4]: 2.86 ppm | Synergy Index [2, 5]: 1.00 | Synergy Index [2, 6]: 1.00 | ppm DBNPA [2, 3]: 3.09 ppm | ppm DBNPA [2, 4]: 2.33 ppm

CCCCCCCCn1sc(Cl)c(Cl)c1=O [DCOI, 4,5-Dichloro-2-n-octyl-3(2H)-isothiazolinone]
Synergy Index ([1]; DCOI & AmBr, pH 5.5, end point 50% inhibition): 1.00 | Synergy Index ([1]; DCOI & AmBr, pH 8.0, end point 50% inhibition): 1.00 | ppm DCOI [1, 3]: 0.39 ppm | ppm DCOI [1, 4]: 1.49 ppm

CCCCCCCCCCCCNC(=N)N.Cl [DGH, N-Dodecylguanidine hydrochloride]
Synergy Index ([1]; DGH & AmBr, pH 5.5, end point 50% inhibition): 1.00 | Synergy Index ([1]; DGH & AmBr, pH 8.0, end point 50% inhibition): 1.00 | ppm DGH [1, 3]: 3.11 ppm | ppm DGH [1, 4]: 1.84 ppm

CCCCCCCCCC[N+](C)(C)CCCCCCCCCC.[Cl-] [DIDAC, Didecyl dimethyl ammonium chloride]
Synergy Index ([1]; DIDAC & AmBr, pH 5.5, end point 50% inhibition): 1.00 | Synergy Index ([1]; DIDAC & AmBr, pH 8.0, end point 50% inhibition): 1.00 | ppm DIDAC [1, 3]: 1.82 ppm | ppm DIDAC [1, 4]: 1.62 ppm

O=c1ssc(Cl)c1Cl [Dithiol, 4,5-Dichloro-1,2-dithiol-3-one]
Synergy Index ([1]; Dithiol & AmBr, pH 5.5, end point 50% inhibition): 1.00 | Synergy Index ([1]; Dithiol & AmBr, pH 8.0, end point 50% inhibition): 1.00 | ppm Dithiol [1, 3]: 0.63 ppm | ppm Dithiol [1, 4]: 0.84 ppm

O=CCCCC=O [Glut, Glutaraldehyde]
Synergy Index ([1]; Glut & AmBr, pH 5.5, end point 50% inhibition): 1.00 | Synergy Index ([1]; Glut & AmBr, pH 8.0, end point 50% inhibition): 1.00 | ppm Glut [1, 3]: 2.06 ppm | ppm Glut [1, 4]: 6.68 ppm

N#CSCSC#N [MBT, Methylene bisthiocyanate]
Synergy Index ([1]; MBT & AmBr, pH 5.5, end point 50% inhibition): 1.00 | Synergy Index ([1]; MBT & AmBr, pH 8.0, end point 50% inhibition): 1.00 | ppm MBT [1, 3]: 0.36 ppm | ppm MBT [1, 4]: 0.71 ppm | Synergy Index ([2]; MBT & AmBr, at 50% inhibition, pH 5.5): 1.00 | Synergy Index ([2]; MBTC & AmBr, at 50% inhibition, pH 8.0): 1.00 | ppm MBT [2, 7]: 0.38 ppm | ppm MBT [2, 8]: 0.73 ppm

O=S(=O)(C(Cl)(Cl)Cl)C(Cl)(Cl)Cl [Sulfone, bis(trichloromethyl)sulfone]
Synergy Index [1, 9]: 1.00 | Synergy Index [1, 10]: 1.00 | ppm Sulfone [1, 7]: 1.87 ppm | ppm Sulfone [1, 8]: 8.42 ppm | Synergy Index [2, 9]: 1.00 | Synergy Index [2, 10]: 1.00 | ppm Sulfone [2, 7]: 4.44 ppm | ppm Sulfone [2, 8]: 10.25 ppm

— patent US7008545B2, “Synergistic biocidal mixtures” (Hercules Incorporated, priority 2002, dated 2006)
